Assay results reported in US10323037B2, “Aminopyridazinone compounds as protein kinase inhibitors” (Jiangsu Hengrui Medicine Co., Ltd., priority 2014, dated 2019).

System: TMD-8 cells
Test: Cell proliferation assay (CellTiter-Glo), TMD-8
Format: cell-based
Conditions: Homo sapiens, TMD8, 120 h; 5-day treatment; read-out: TMD8 cells growth IC50
Method: Cell proliferation assay: TMD-8 and SU-DHL-1 cells were maintained at 37° C. in a humidified atmosphere with 5% CO2 in the recommended medium and serum concentrations. For cell proliferation assay, cells were seeded in 96-well pates at a density of 5,000 to 10,000 cells per well and cultured overnight at 37° C. in recommended medium supplemented with 5-10% FBS. On the next day, the test articles at various concentrations or vehicle control (0.5% DMSO) were added into cell culture. After 5-day treatment, the growth of cells was assayed by the CellTiter-Glo® Luminestceaent Cell Viability Assay (Promega). IC50 values were calculated using GraphPad Prism by plotting the logarithm of the concentration versus percent inhibition of cell growth as compared with the vehicle control.

| Structure (SMILES) | IC50 [nM] |
| --- | --- |
| C=CC(=O)N1CCC[C@@H](n2cc(-c3ccc(Oc4ccccc4F)cc3)c3c(N)n[nH]c(=O)c32)C1 [Example 56, (R)-1-(1-acryloylpiperidin-3-yl)-4-amino-3-(4-(2-fluorophenoxy)phenyl)-1H-pyrrolo[2,3-d]pyridazin-7(6H)-one] | ≤ 10 |
| CN(C)C/C=C/C(=O)N1CCC[C@@H](n2cc(-c3ccc(Oc4ccccc4F)cc3)c3c(N)n[nH]c(=O)c32)C1 [Example 57, 4-amino-1-[(3R)-1-[(E)-4-(dimethylamino)but-2-enoyl]-3-piperidyl]-3-[4-(2-fluorophenoxy)phenyl]-6H-pyrrolo[2,3-d]pyridazin-7-one] | ≤ 10 |
| C=CC(=O)N1CCC[C@@H](n2cc(-c3ccc(Oc4c(F)cccc4F)cc3)c3c(N)n[nH]c(=O)c32)C1 [Example 58, (R)-1-(1-acryloylpiperidin-3-yl)-4-amino-3-(4-(2,6-difluorophenoxy)phenyl)-1H-pyrrolo[2,3-d]pyridazin-7(6H)-one] | ≤ 10 |
| CN(C)C/C=C/C(=O)N1CCC[C@@H](n2cc(-c3ccc(Oc4c(F)cccc4F)cc3)c3c(N)n[nH]c(=O)c32)C1 [Example 59, 4-amino-3-[4-(2,6-difluorophenoxy)phenyl]-1-[(3R)-1-[(E)-4-(dimethylamino)but-2-enoyl]-3-piperidyl]-6H-pyrrolo[2,3-d]pyridazin-7-one] | ≤ 10 |
| C=CC(=O)N1CCCC(n2cc(-c3ccc(Oc4ccc(F)cc4)cc3)c3c(N)n[nH]c(=O)c32)C1 (centres unmarked) [Example 60, 1-(1-acryloylpiperidin-3-yl)-4-amino-3-(4-(4-fluorophenoxy)phenyl)-1H-pyrrolo[2,3-d]pyridazin-7(6H)-one] | 10 to 1000 |
| CN(C)C/C=C/C(=O)N1CCCC(n2cc(-c3ccc(Oc4ccc(F)cc4)cc3)c3c(N)n[nH]c(=O)c32)C1 (centres unmarked) [Example 61, 4-amino-1-[1-[(E)-4-(dimethylamino)but-2-enoyl]-3-piperidyl]-3-[4-(4-fluorophenoxy)phenyl]-6H-pyrrolo[2,3-d]pyridazin-7-one] | 10 to 1000 |
| C=CC(=O)N1CCCC(n2cc(-c3ccc(Oc4cccc(F)c4)cc3)c3c(N)n[nH]c(=O)c32)C1 (centres unmarked) [Example 62, 1-(1-acryloylpiperidin-3-yl)-4-amino-3-(4-(3-fluorophenoxy)phenyl)-1H-pyrrolo[2,3-d]pyridazin-7(6H)-one] | ≤ 10 |
| CN(C)C/C=C/C(=O)N1CCCC(n2cc(-c3ccc(Oc4cccc(F)c4)cc3)c3c(N)n[nH]c(=O)c32)C1 (centres unmarked) [Example 63, 4-amino-1-[1-[(E)-4-(dimethylamino)but-2-enoyl]-3-piperidyl]-3-[4-(3-fluorophenoxy)phenyl]-6H-pyrrolo[2,3-d]pyridazin-7-one] | ≤ 10 |
| C=CC(=O)N1CCCC(n2cc(-c3ccc(Oc4ccc(Cl)cc4)cc3)c3c(N)n[nH]c(=O)c32)C1 (centres unmarked) [Example 64, 1-(1-acryloylpiperidin-3-yl)-4-amino-3-(4-(4-chlorophenoxy)phenyl)-1H-pyrrolo[2,3-d]pyridazin-7(6H)-one] | ≤ 10 |
| CN(C)C/C=C/C(=O)N1CCCC(n2cc(-c3ccc(Oc4ccc(Cl)cc4)cc3)c3c(N)n[nH]c(=O)c32)C1 (centres unmarked) [Example 65, 4-amino-3-[4-(4-chlorophenoxy)phenyl]-1-[1-[(E)-4-(dimethylamino)but-2-enoyl]-3-piperidyl]-6H-pyrrolo[2,3-d]pyridazin-7-one] | 10 to 1000 |
| C=CC(=O)N1CCCC(n2cc(-c3ccc(Oc4cccc(Cl)c4)cc3)c3c(N)n[nH]c(=O)c32)C1 (centres unmarked) [Example 66, 1-(1-acryloylpiperidin-3-yl)-4-amino-3-(4-(3-chlorophenoxy)phenyl)-1H-pyrrolo[2,3-d]pyridazin-7(6H)-one] | ≤ 10 |
| CN(C)C/C=C/C(=O)N1CCCC(n2cc(-c3ccc(Oc4cccc(Cl)c4)cc3)c3c(N)n[nH]c(=O)c32)C1 (centres unmarked) [Example 67, 4-amino-3-[4-(3-chlorophenoxy)phenyl]-1-[1-[(E)-4-(dimethylamino)but-2-enoyl]-3-piperidyl]-6H-pyrrolo[2,3-d]pyridazin-7-one] | 10 to 1000 |
| C=CC(=O)N1CCCC(n2cc(-c3ccc(Oc4cccc(Cl)c4)c(OC)c3)c3c(N)n[nH]c(=O)c32)C1 (centres unmarked) [Example 68, 1-(1-acryloylpiperidin-3-yl)-4-amino-3-(4-(3-chlorophenoxy)-3-methoxyphenyl)-1H-pyrrolo[2,3-d]pyridazin-7(6H)-one] | ≤ 10 |
| COc1cc(-c2cn(C3CCCN(C(=O)/C=C/CN(C)C)C3)c3c(=O)[nH]nc(N)c23)ccc1Oc1cccc(Cl)c1 (centres unmarked) [Example 69, 4-amino-3-[4-(3-chlorophenoxy)-3-methoxy-phenyl]-1-[1-[(E)-4-(dimethylamino)but-2-enoyl]-3-piperidyl]-6H-pyrrolo[2,3-d]pyridazin-7-one] | ≤ 10 |
| C=CC(=O)N1CCC[C@@H](n2cc(-c3ccc(Oc4ccccc4Cl)cc3)c3c(N)n[nH]c(=O)c32)C1 [Example 70, (R)-1-(1-acryloylpiperidin-3-yl)-4-amino-3-(4-(2-chlorophenoxy)phenyl)-1H-pyrrolo[2,3-d]pyridazin-7(6H)-one] | ≤ 10 |
| CN(C)C/C=C/C(=O)N1CCC[C@@H](n2cc(-c3ccc(Oc4ccccc4Cl)cc3)c3c(N)n[nH]c(=O)c32)C1 [Example 71, 4-amino-3-[4-(2-chlorophenoxy)phenyl]-1-[(3R)-1-[(E)-4-(dimethylamino)but-2-enoyl]-3-piperidyl]-6H-pyrrolo[2,3-d]pyridazin-7-one] | ≤ 10 |
| C=CC(=O)N1CCC[C@@H](n2cc(-c3ccc(Oc4ccc(Cl)c(Cl)c4)c(OC)c3)c3c(N)n[nH]c(=O)c32)C1 [Example 72, (R)-1-(1-acryloylpiperidin-3-yl)-4-amino-3-(4-(3,4-dichlorophenoxy)-3-methoxyphenyl)-1H-pyrrolo[2,3-d]pyridazin-7(6H)-one] | 10 to 1000 |
| COc1cc(-c2cn([C@@H]3CCCN(C(=O)/C=C/CN(C)C)C3)c3c(=O)[nH]nc(N)c23)ccc1Oc1ccc(Cl)c(Cl)c1 [Example 73, 4-amino-3-[4-(3,4-dichlorophenoxy)-3-methoxy-phenyl]-1-[(3R)-1-[(E)-4-(dimethylamino)but-2-enoyl]-3-piperidyl]-6H-pyrrolo[2,3-d]pyridazin-7-one] | 10 to 1000 |
| C=CC(=O)N1CCC[C@@H](n2cc(-c3ccc(Oc4ccccc4)c(F)c3)c3c(N)n[nH]c(=O)c32)C1 [Example 74, (R)-1-(1-acryloylpiperidin-3-yl)-4-amino-3-(3-fluoro-4-phenoxyphenyl)-1H-pyrrolo[2,3-d]pyridazin-7(6H)-one] | ≤ 10 |
| CN(C)C/C=C/C(=O)N1CCC[C@@H](n2cc(-c3ccc(Oc4ccccc4)c(F)c3)c3c(N)n[nH]c(=O)c32)C1 [Example 75, 4-amino-1-[(3R)-1-[(E)-4-(dimethylamino)but-2-enoyl]-3-piperidyl]-3-(3-fluoro-4-phenoxy-phenyl)-6H-pyrrolo[2,3-d]pyridazin-7-one] | 10 to 1000 |
| C=CC(=O)N1CCC[C@@H](n2cc(-c3ccc(Oc4ccccc4)cc3F)c3c(N)n[nH]c(=O)c32)C1 [Example 76, (R)-1-(1-acryloylpiperidin-3-yl)-4-amino-3-(2-fluoro-4-phenoxyphenyl)-1H-pyrrolo[2,3-d]pyridazin-7(6H)-one] | ≤ 10 |
| CN(C)C/C=C/C(=O)N1CCC[C@@H](n2cc(-c3ccc(Oc4ccccc4)cc3F)c3c(N)n[nH]c(=O)c32)C1 [Example 77, 4-amino-1-[(3R)-1-[(E)-4-(dimethylamino)but-2-enoyl]-3-piperidyl]-3-(2-fluoro-4-phenoxy-phenyl)-6H-pyrrolo[2,3-d]pyridazin-7-one] | ≤ 10 |
| C=CC(=O)N1CCC[C@@H](n2cc(-c3ccc(Oc4c(F)cccc4Cl)cc3)c3c(N)n[nH]c(=O)c32)C1 [Example 78, (R)-1-(1-acryloylpiperidin-3-yl)-4-amino-3-(4-(2-chloro-6-fluorophenoxy)phenyl)-1H-pyrrolo[2,3-d]pyridazin-7(6H)-one] | ≤ 10 |
| CN(C)C/C=C/C(=O)N1CCC[C@@H](n2cc(-c3ccc(Oc4c(F)cccc4Cl)cc3)c3c(N)n[nH]c(=O)c32)C1 [Example 79, 4-amino-3-[4-(2-chloro-6-fluoro-phenoxy)phenyl]-1-[(3R)-1-[(E)-4-(dimethylamino)but-2-enoyl]-3-piperidyl]-6H-pyrrolo[2,3-d]pyridazin-7-one] | ≤ 10 |
| C=CC(=O)N1CCC[C@@H](n2c(Cl)c(-c3ccc(Oc4ccccc4)cc3)c3c(N)n[nH]c(=O)c32)C1 [Example 80, (R)-1-(1-acryloylpiperidin-3-yl)-4-amino-2-chloro-3-(4-phenoxyphenyl)-1H-pyrrolo[2,3-d]pyridazin-7(6H)-one] | 10 to 1000 |
| C=CC(=O)N1CCC[C@@H](n2c(F)c(-c3ccc(Oc4ccccc4)cc3)c3c(N)n[nH]c(=O)c32)C1 [Example 81, (R)-1-(1-acryloylpiperidin-3-yl)-4-amino-2-fluoro-3-(4-phenoxyphenyl)-1H-pyrrolo[2,3-d]pyridazin-7(6H)-one] | ≤ 10 |
| CN(C)C/C=C/C(=O)N1CCC[C@@H](n2c(F)c(-c3ccc(Oc4ccccc4)cc3)c3c(N)n[nH]c(=O)c32)C1 [Example 82, 4-amino-1-[(3R)-1-[(E)-4-(dimethylamino)but-2-enoyl]-3-piperidyl]-2-fluoro-3-(4-phenoxyphenyl)-6H-pyrrolo[2,3-d]pyridazin-7-one] | ≤ 10 |
| N#CN1CCC[C@@H](n2cc(-c3ccc(Oc4c(F)cccc4F)cc3)c3c(N)n[nH]c(=O)c32)C1 [Example 84, (R)-3-(4-amino-3-(4-(2,6-difluorophenoxy)phenyl)-7-oxo-6,7-dihydro-1H-pyrrolo[2,3-d]pyridazin-1-yl)piperidine-1-carbonitrile] | ≤ 10 |
| N#CN1CCC[C@@H](n2cc(-c3ccc(Oc4ccccc4)c(F)c3)c3c(N)n[nH]c(=O)c32)C1 [Example 85, (R)-3-(4-amino-3-(3-fluoro-4-phenoxyphenyl)-7-oxo-6,7-dihydro-1H-pyrrolo[2,3-d]pyridazin-1-yl)piperidine-1-carbonitrile] | ≤ 10 |
